Drawing on patent publication US9944666B2, “Compounds that are S1P modulating agents and/or ATX modulating agents” (BIOGEN MA INC., priority 2012, dated 2018), this text covers IC50 for 29 compounds.

Each structure is given as a SMILES string.

The target of this experiment is T1, Human ATX protein (Homo sapiens, UniProt Q13822).
T1 construct: made in house
The experiment is described as follows: ATX biochemical FRET assay with FS-3 substrate. Conditions: FS-3 2 μM, ATX 1.0 μg/mL, room temperature 2 hours, fluorescence 485/538 nm. A digest of the protocol:
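Purified human ATX (1.0 μg/mL final) preincubated with compound 30 min at room temperature in Tris pH 7.4 buffer with NaCl, KCl, CaCl2, MgCl2 and 1 mg/mL fatty acid-free BSA. FS-3 added to 2 μM final; 2 h at room temperature in the dark, fluorescence at ex 485/em 538 nm.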
`N#Cc1c(O[C@H]2CC[C@@H](C(F)(F)F)CC2)ccc2cc(C(=O)N3C4CCCC3CC(C(=O)O)C4)ccc12` (stereo partly drawn) [Example 206, 9-(5-cyano-6-((cis-4-(trifluoromethyl)cyclohexyl)oxy)-2-naphthoyl)-9-azabicyclo[3.3.1]nonane-3-carboxylic acid] returned a 50% inhibitory concentration (IC50) of no more than 100 nM.

Turning to `C[C@H]1CC[C@@H](Oc2ccc3cc(CN4C5CCCC4CC(C(=O)O)C5)ccc3c2C#N)CC1` (stereo partly drawn) [Example 207, 9-((5-cyano-6-((cis-4-methylcyclohexyl)oxy)naphthalen-2-yl)methyl)-9-azabicyclo[3.3.1]nonane-3-carboxylic acid], the IC50 was no more than 100 nM.

`C[C@H]1CC[C@@H](Oc2ccc3cc(C(=O)N4C5CCCC4CC(C(=O)O)C5)ccc3c2Cl)CC1` (stereo partly drawn) [Example 208, 9-(5-chloro-6-((cis-4-methylcyclohexyl)oxy)-2-naphthoyl)-9-azabicyclo[3.3.1]nonane-3-carboxylic acid] came in with an IC50 of no more than 250 nM.

Regarding `CC(F)(F)[C@H]1CC[C@@H](Oc2ccc3cc(CN4C5CCCC4CC(C(=O)O)C5)ccc3c2C(F)(F)F)CC1` (stereo partly drawn) [Example 209, 9-((6-((cis-4-(1,1-difluoroethyl)cyclohexyl)oxy)-5-(trifluoro-methyl)naphthalen-2-yl)methyl)-9-azabicyclo[3.3.1]nonane-3-carboxylic acid], the 50% inhibitory concentration (IC50) was no more than 100 nM.

Compound `CCC(c1ccc2c(Cl)c(O[C@H]3CC[C@@H](C)CC3)ccc2c1)N1C2CCC1CC(C(=O)O)C2` (stereo partly drawn) [Example 210, 8-(1-(5-chloro-6-((cis-4-methylcyclohexyl)oxy)naphthalen-2-yl)propyl)-8-azabicyclo[3.2.1]octane-3-carboxylic acid] gave a half-maximal inhibitory concentration (IC50) of no more than 100 nM.

In turn, `CCC(c1ccc2c(Cl)c(O[C@H]3CC[C@@H](C)CC3)ccc2c1)N1C2CCCC1CC(C(=O)O)C2` (stereo partly drawn) [Example 211, 9-(1-(5-chloro-6-((cis-4-methylcyclohexyl)oxy)naphthalen-2-yl)propyl)-9-azabicyclo[3.3.1]nonane-3-carboxylic acid] showed an IC50 of no more than 100 nM.

Turning to `CC[C@H]1CC[C@@H](Oc2ccc3cc(C(C)N4C5CCC4CC(C(=O)O)C5)ccc3c2C#N)CC1` (stereo partly drawn) [Example 212, 8-(1-(5-cyano-6-((cis-4-ethylcyclohexyl)oxy)naphthalen-2-yl)ethyl)-8-azabicyclo[3.2.1]octane-3-carboxylic acid], the half-inhibitory concentration (IC50) is no more than 100 nM.

The compound `CC[C@H]1CC[C@@H](Oc2ccc3cc(C(C)N4C5CCCC4CC(C(=O)O)C5)ccc3c2C#N)CC1` (stereo partly drawn) [Example 213, 9-(1-(5-cyano-6-((cis-4-ethylcyclohexyl)oxy)naphthalen-2-yl)ethyl)-9-azabicyclo[3.3.1]nonane-3-carboxylic acid] displayed a 50% inhibitory concentration (IC50) of no more than 100 nM.

In turn, `CC(c1ccc2c(Cl)c(O[C@H]3CC[C@@H](C)CC3)ccc2c1)N1C2CCCC1CC(C(=O)O)C2` (stereo partly drawn) [Example 214, 9-(1-(5-chloro-6-((cis-4-methylcyclohexyl)oxy)naphthalen-2-yl)ethyl)-9-azabicyclo[3.3.1]nonane-3-carboxylic acid] returned a 50% inhibitory concentration (IC50) of no more than 100 nM.

Compound `CC[C@H]1CC[C@@H](Oc2ccc3cc(C(=O)N4C5CCC4CC(C(=O)O)C5)ccc3c2Cl)CC1` (stereo partly drawn) [Example 215, 8-(5-chloro-6-((cis-4-ethylcyclohexyl)oxy)-2-naphthoyl)-8-azabicyclo[3.2.1]octane-3-carboxylic acid] had a concentration for half-maximal inhibition (IC50) of no more than 500 nM.

In the case of `CC(c1ccc2c(C(F)(F)F)c(O[C@H]3CC[C@@H](C(C)(F)F)CC3)ccc2c1)N1C2CCC1CC(C(=O)O)C2` (stereo partly drawn) [Example 216, 8-(1-(6-((cis-4-(1,1-difluoroethyl)cyclohexyl)oxy)-5-(trifluoromethyl)naphthalen-2-yl)ethyl)-8-azabicyclo[3.2.1]octane-3-carboxylic acid], the half-maximal inhibitory concentration (IC50) is no more than 100 nM.

With `CC(c1ccc2c(C(F)(F)F)c(O[C@H]3CC[C@@H](C(C)(F)F)CC3)ccc2c1)N1C2CCCC1CC(C(=O)O)C2` (stereo partly drawn) [Example 217, 9-(1-(6-((cis-4-(1,1-difluoroethyl)cyclohexyl)oxy)-5-(trifluoromethyl)naphthalen-2-yl)ethyl)-9-azabicyclo[3.3.1]nonane-3-carboxylic acid], the IC50 was no more than 100 nM.

Turning to `C[C@H]1CC[C@@H](Oc2ccc3cc(C(=O)N4C5CCCC4CC(C(=O)O)C5)ccc3c2C#N)CC1` (stereo partly drawn) [Example 218, 9-(5-cyano-6-((cis-4-methylcyclohexyl)oxy)-2-naphthoyl)-9-azabicyclo[3.3.1]nonane-3-carboxylic acid], the IC50 was no more than 100 nM.

`C[C@H]1CC[C@@H](Oc2ccc3cc(C(=O)N4C5CCC4CC(C(=O)O)C5)ccc3c2C#N)CC1` (stereo partly drawn) [Example 219, 8-(5-cyano-6-((cis-4-methylcyclohexyl)oxy)-2-naphthoyl)-8-azabicyclo[3.2.1]octane-3-carboxylic acid] gave a concentration for half-maximal inhibition (IC50) of no more than 100 nM.

For `CCC(c1ccc2c(C#N)c(O[C@H]3CC[C@@H](CC)CC3)ccc2c1)N1C2CCC1CC(C(=O)O)C2` (stereo partly drawn) [Example 220, 8-(1-(5-cyano-6-((cis-4-ethylcyclohexyl)oxy)naphthalen-2-yl)propyl)-8-azabicyclo[3.2.1]octane-3-carboxylic acid], the half-maximal inhibitory concentration (IC50) was no more than 100 nM.

Regarding `CC[C@H]1CC[C@@H](Oc2ccc3cc(C(=O)N4C5CCCC4CC(C(=O)O)C5)ccc3c2C#N)CC1` (stereo partly drawn) [Example 221, 9-(5-cyano-6-((cis-4-ethylcyclohexyl)oxy)-2-naphthoyl)-9-azabicyclo[3.3.1]nonane-3-carboxylic acid], the IC50 was no more than 100 nM.

On to `CC[C@H]1CC[C@@H](Oc2ccc3cc(C(=O)N4C5CCC4CC(C(=O)O)C5)ccc3c2C(F)(F)F)CC1` (stereo partly drawn) [Example 222, 8-(6-((cis-4-ethylcyclohexyl)oxy)-5-(trifluoromethyl)-2-naphthoyl)-8-azabicyclo[3.2.1]octane-3-carboxylic acid], for which the IC50 was no more than 100 nM.

`CC[C@H]1CC[C@@H](Oc2ccc3cc(C(=O)N4C5CCC4CC(C(=O)O)C5)ccc3c2C#N)CC1` (stereo partly drawn) [Example 223, 8-(5-cyano-6-((cis-4-ethylcyclohexyl)oxy)-2-naphthoyl)-8-azabicyclo[3.2.1]octane-3-carboxylic acid] gave an IC50 of no more than 100 nM.

On to `CC[C@H]1CC[C@@H](Oc2ccc3cc(C(=O)N4C5CCCC4CC(C(=O)O)C5)ccc3c2C(F)(F)F)CC1` (stereo partly drawn) [Example 224, 9-(6-((cis-4-ethylcyclohexyl)oxy)-5-(trifluoromethyl)-2-naphthoyl)-9-azabicyclo[3.3.1]nonane-3-carboxylic acid], for which the 50% inhibitory concentration (IC50) is no more than 100 nM.

`CC(c1ccc2c(C#N)c(O[C@H]3CC[C@@H](C)CC3)ccc2c1)N1C2CCCC1CC(C(=O)O)C2` (stereo partly drawn) [Example 225, 9-(1-(5-cyano-6-((cis-4-methylcyclohexyl)oxy)naphthalen-2-yl)ethyl)-9-azabicyclo[3.3.1]nonane-3-carboxylic acid] returned an IC50 of no more than 100 nM.

Take `CCC(c1ccc2c(C#N)c(O[C@H]3CC[C@@H](C)CC3)ccc2c1)N1C2CCC1CC(C(=O)O)C2` (stereo partly drawn) [Example 226, 8-(1-(5-cyano-6-((cis-4-methylcyclohexyl)oxy)naphthalen-2-yl)propyl)-8-azabicyclo[3.2.1]octane-3-carboxylic acid]: the IC50 is no more than 100 nM.

`CC[C@H]1CC[C@@H](Oc2ccc3cc(C(=O)N4C5CCCC4CC(C(=O)O)C5)ccc3c2Cl)CC1` (stereo partly drawn) [Example 227, 9-(5-chloro-6-((cis-4-ethylcyclohexyl)oxy)-2-naphthoyl)-9-azabicyclo[3.3.]nonane-3-carboxylic acid] returned an IC50 of no more than 100 nM.

For `CC(c1ccc2c(C#N)c(O[C@H]3CC[C@@H](C(F)(F)F)CC3)ccc2c1)N1C2CCCC1CC(C(=O)O)C2` (some centres unmarked) [Example 228, 9-(1-(5-cyano-6-(((1s,4s)-4-(trifluoromethyl)cyclohexyl)oxy)naphthalen-2-yl)ethyl)-9-azabicyclo[3.3.1]nonane-3-carboxylic acid], the IC50 is no more than 100 nM.

In turn, `N#Cc1c(O[C@H]2CC[C@@H](C(F)(F)F)CC2)ccc2cc(CN3C4CCCC3CC(C(=O)O)C4)ccc12` (stereo partly drawn) [Example 229, 9-((5-cyano-6-((cis-4-(trifluoromethyl)cyclohexyl)oxy)naphthalen-2-yl)methyl)-9-azabicyclo[3.3.1]nonane-3-carboxylic acid] had an IC50 of no more than 100 nM.

With `O=C(O)C1CC2CCCC(C1)N2Cc1ccc2c(C(F)(F)F)c(N[C@H]3CC[C@@H](C(F)(F)F)CC3)ccc2c1` (stereo partly drawn) [Example 230, 9-((5-(trifluoromethyl)-6-((cis-4-(trifluoromethyl)cyclohexyl)amino)naphthalen-2-yl)methyl)-9-azabicyclo[3.3.1]nonane-3-carboxylic acid], the IC50 was no more than 100 nM.

In turn, `COC(=O)C1CC2CCC(C1)N2C(=O)c1ccc2c(C(F)(F)F)c(N[C@H]3CC[C@@H](C(F)(F)F)CC3)ccc2c1` (stereo partly drawn) [Example 231, methyl 8-(5-(trifluoromethyl)-6-((cis-4-(trifluoromethyl)cyclohexyl)amino)-2-naphthoyl)-8-azabicyclo[3.2.1]octane-3-carboxylate] had an IC50 of no more than 250 nM.

As for `CC(c1ccc2c(Cl)c(O[C@H]3CC[C@@H](C(F)(F)F)CC3)ccc2c1)N1C2CCC1CC(C(=O)O)C2` (stereo partly drawn) [Example 234, 8-(1-(5-chloro-6-((cis-4-(trifluoromethyl)cyclohexyl)oxy)naphthalen-2-yl)ethyl)-8-azabicyclo[3.2.1]octane-3-carboxylic acid], the IC50 was no more than 100 nM.

`CC(c1ccc2c(Cl)c(O[C@H]3CC[C@@H](C(F)(F)F)CC3)ccc2c1)N1C2CCCC1CC(C(=O)O)C2` (stereo partly drawn) [Example 235, 9-(1-(5-chloro-6-((cis-4-(trifluoromethyl)cyclohexyl)oxy)naphthalen-2-yl)ethyl)-9-azabicyclo[3.3.1]nonane-3-carboxylic acid]: the IC50 was no more than 100 nM.

In turn, `CCC(c1ccc2c(Cl)c(O[C@H]3CC[C@@H](CC)CC3)ccc2c1)N1C2CCC1CC(C(=O)O)C2` (stereo partly drawn) [Example 236, 8-(1-(5-chloro-6-((cis-4-ethylcyclohexyl)oxy)naphthalen-2-yl)propyl)-8-azabicyclo[3.2.1]octane-3-carboxylic acid] yielded an IC50 of no more than 100 nM.

One may read the IC50 as the concentration at which inhibition is half-maximal. Low values mean higher potency, high ones lower potency.
